Laboratory results taken from patent US7820678B2, “Sodium channel blockers” (Parion Sciences, Inc., priority 2003, dated 2010).

melting point: 174 to 176 °C (dec.)
SMILES: CS(=O)(=O)N(c1ccc(CCCCNC(=N)NC(=O)c2nc(Cl)c(N)nc2N)cc1)S(C)(=O)=O [Example 4, N-(3,5-Diamino-6-chloropyrazine-2-carbonyl)-N′-[4-(4-bis(methanesulfonyl)aminophenyl)butyl]guanidine]
